These results are taken from patent US20260103474A1, “NOVEL COMPOUNDS FOR THE DIAGNOSIS OF TDP-43 PROTEINOPATHIES” (AC IMMUNE SA, priority 2022, published 2026).

Read-outs that look alike come from different tables or passages of the source. A value given as a limit tells only on which side of the number the result lay.

For orientation: Kd means a measure of binding affinity in units of concentration. A high value points to lower affinity. A word on the Ki: it is the equilibrium dissociation constant of an inhibitor or competing ligand from its target.

The target in assay [1] is human FTD Type A sarkosyl-insoluble brain extracts (Homo sapiens, UniProt Q13148). The assay can be described thus: Kd determination by micro-radiobinding assay on FTD Type A extracts. As to conditions: tritiated compound 1.29 to 300 nM. It is filed as binding. Here is the method:
(§1) Human brain extracts were prepared as described in Laferriere et al., 2019, Nature Neurosc. A sample of brain tissue (frontal or temporal cortex) was homogenized at 1:4 (w/v) ratio in the homogenization-solubilization (HS) buffer at 4° C. using tissue homogenizer (Precellys) with CKmix homogenization tubes. The following sequence was used for homogenization: 3 cycles of 30 seconds at 5000 rpm (with 15 seconds pause between each cycle). Homogenized samples were aliquoted and stored at −80° C. in 1.5 mL low protein binding tubes.
(§2) Brain homogenates were thawed on ice and resuspended in HS buffer to obtain a final concentration of 2% sarkosyl, 1 unit/μL Benzonase and 1 mM MgCl2. The samples were then incubated at 37° C. under constant shaking at 600 rpm on a thermomixer for 45 minutes (min). The supernatants were collected in a new tube (sarkosyl-soluble fraction, S1). The pellet was resuspended in 1000 μL of myelin floatation buffer and centrifuged at 20,000 g for 60 min at 4° C. The supernatant was carefully removed to remove all the floating lipids. This step was repeated if all the lipids could not be removed in a single step. The pellet was subsequently washed with Phosphate-Buffered Saline (PBS) and centrifuged for 30 min at 20,000 g at 4° C. The final pellet was resuspended in 200 μL PBS and stored at −80° C. (sarkosyl-insoluble fraction). The samples were analyzed by immunoblotting in denaturing conditions.
Human FTD sarkosyl-insoluble brain extracts were spotted onto microarray slides. The slides were incubated with [^3H]-Compounds 1, 7, 8, 9, 15, 16 and 17 in a range of concentrations, varying from 1.29 to 300 nM. After incubation, slides were washed and scanned by a real-time autoradiography system (BeaQuant, ai4R). Quantification of the signal was performed by using the Beamage image analysis software (ai4R). Non-specific signal was determined with an excess of non-radiolabeled compound 1, 7, 8, 9, 15, 16 and 17 (1 μM), respectively, and specific binding was calculated by subtracting the non-specific signal from the total signal.
The Kd (Dissociation constant) and R^2 (parameter ranging between 0.0 and 1.0 that quantifies the goodness of fit, and the best curve fit obtained with value of 1.0) were obtained by fitting the specific binding data with non-linear regression analysis, using a one-site specific binding model in GraphPad Prism8.

Assay [2] deals with T1, Human brain derived TDP-43 aggregates (Homo sapiens, UniProt Q13148).
T1 construct: Human FTD sarkosyl-insoluble brain extracts were spotted onto microarray slides
In words: Micro-radiobinding competition assay for binding affinity to TDP-43. Conditions: for Ki: 0.24 nM to 2 μM vs tritiated reference ligand at 40 nM; for Human brain derived TDP-43 aggregates Mean % competition at 250 nM: non-radiolabeled compound at 250 nM vs tritiated reference ligand at 40 nM; for Human brain derived TDP-43 aggregates Mean % competition at 250 nM / Human brain derived TDP-43 aggregates Mean % competition at 2 μM: FTD sarkosyl-insoluble brain extracts; for Human brain derived TDP-43 aggregates Mean % competition at 2 μM: non-radiolabeled compound at 2 μM vs tritiated reference ligand at 40 nM. Here is the method:
as §1, §2
Human FTD sarkosyl-insoluble brain extracts were spotted onto microarray slides. The slides were incubated with a tritiated reference ligand at 40 nM, and the example compounds (non-radiolabeled) at 2 μM and 250 nM. […] After incubation, slides were washed and scanned by a real-time autoradiography system (BeaQuant, ai4R). Quantification of the signal was performed by using the Beamage image analysis software (ai4R). Non-specific signal was determined with an excess of non-radiolabeled reference compound (2 μM) and specific binding was calculated by subtracting the non-specific signal from the total signal. Competition was calculated as percent, where 0% was defined as the specific binding in the presence of vehicle and 100% as the values obtained in the presence of excess of the non-radiolabeled reference compound. Ki values were calculated in GraphPad Prism8 by applying a nonlinear regression curve fit using a one site, specific binding model. Measurements were performed with at least two technical replicates in the two-concentration competition experiment and with one technical replicate in the experiments including a range of concentrations. For compounds tested in more than one experiment, the mean of the replicates or Ki values in independent experiments is reported.

The target in a further assay is TDP-43 aggregates (Homo sapiens, UniProt Q13148). The assay can be described thus: Classical autoradiography in brain sections from patients with FTD. Format: binding. How it is done: All tissues were collected from donors for or from whom a written informed consent for a brain autopsy and the use of the material and clinical information for research purposes had been obtained by the respective brain banks. All samples were anonymized and coded. Frozen brain tissue blocks with confirmed TDP-43 pathology upon autopsy were processed using a cryotome to generate sections of 10 μm in thickness and mounted on glass slides. Sections were kept at −80° C. until use.
Brain sections were fixed for 15 minutes at 4° C. with 4% formaldehyde on ice and washed three times for eight minutes with 1×PBS at RT. Sections were blocked in assay buffer for 30 minutes (50 mM Tris-HCl, 0.9% NaCl+0.1% BSA). Cold test compound (Compound 1, Compound 8 or Compound 17) was diluted in assay buffer to 4 μM and applied on half of the sections for 40 minutes at RT to determine non-specific binding. The remaining half of the sections were only incubated with assay buffer (total binding). Following this incubation, an equal volume of the corresponding tritiated compound (i.e. [^3H]-Compound 1, [^3H]-Compound 8 or [^3H]-Compound 17, respectively), diluted to 20 nM (for [^3H]-Compound 1 and [^3H]-Compound 8) or 10 nM ([^3H]-Compound 17) or increasing concentration from 0.1 to 200 nM (for [^3H]-Compound 1 and [^3H]-Compound 17), was added on sections and incubated for 2 hours at RT and then washed as follows: once in ice-cold 50 mM Tris-HCl pH 7.4 buffer for one minute, twice in ice-cold PBS for one minute, once in ice-cold 50 mM Tris-HCl pH 7.4 buffer for one minute and finally rinsed briefly in ice-cold distilled water.
Sections were subsequently dried under a stream of air and mounted with a copper-based adhesive strip. Bound radioactivity was quantified by exposing the slides in a real-time autoradiography system (Beaquant™ AI4R) for 2 hours, with measurement settings configured for tritium. Beavacq software (AI4R) was used to acquire the image which was subsequently quantified using Beamage image analysis software (AI4R). Specific binding (non-specific binding subtracted from total) and displacement (total binding divided by non-specific) were calculated. Bar graphs were generated using GraphPad Prism. For Kd determination on brain sections, the specific binding data were fitted with a non-linear regression analysis using a one-site specific binding model in GraphPad Prism.

In the next assay the target is T2, Abeta (Homo sapiens, UniProt P05067).
T2 construct: an AD donor with confirmed burden of Tau and Abeta aggregates; from tissue; host or cells: frontal cortex of a human AD donor, Triton/sucrose-insoluble fraction
The assay can be described thus: Radiobinding competition assay using Abeta reference compound on AD insoluble fraction of brain homogenates. Format: binding. As to conditions: against [3H]Abeta reference compound. Here is the method: Approximately 4 g of frozen tissue block from frontal cortex brain region was used from an AD donor with confirmed burden of Tau and Abeta aggregates. The tissue was homogenized in three volumes (1:3 w/v) of high salt buffer (50 mM Tris-HCl pH 7.5, 750 mM NaCl, 5 mM EDTA) supplemented with protease inhibitors (Complete; Roche 11697498001) at 4° C. with a glass Dounce homogenizer. The homogenate was transferred into polycarbonate centrifuge bottles (16×76 mm; Beckman 355603) and centrifuged at 100,000×g (38,000 RPM) in an ultracentrifuge (Beckman, XL100K) for 60 minutes at 4° C. using a pre-cooled 70.1 rotor (Beckman, 342184). Pellets were resuspended in high salt buffer supplemented with 1% Triton X-100 and homogenized at 4° C. with a syringe. The homogenates were centrifuged again at 100,000×g (38,000 RPM, 70.1 rotor) for 60 minutes at 4° C. Pellets were resuspended in high salt buffer supplemented with 1% Triton X-100 and 1 M sucrose and homogenized at 4° C. with a syringe. The homogenates were centrifuged at 100,000×g (38,000 RPM, 70.1 rotor) for 60 minutes at 4° C. The resulting pellets containing insoluble fraction were resuspended in PBS (1:2 w/v relative to starting tissue weight), aliquoted and stored at −80° C. until use.
The reaction was performed in assay buffer (50 mM Tris pH 7.5 in 0.9% NaCl, 0.1% BSA) and incubated for two hours at room temperature (RT). Samples in duplicate were then filtered under vacuum in GF/C filter plates (PerkinElmer) to trap the aggregates with the bound radioligand and washed with 100 μL ice-cold 50 mM Tris pH 7.5. The GF/C filters were then dried and scintillation liquid (UltimateGold, PerkinElmer, 6013151) was added in each well. The filters were analyzed on a Microbeta2 scintillation counter (PerkinElmer). Values for the maximal signal were obtained in the absence of non-radiolabeled compound, while 100% displacement was obtained using 1 μM of non-radiolabeled reference compound. Ki values were calculated by nonlinear regression, using a one site—fit Ki model in Prism V7 (GraphPad).

[3] abbreviates: total binding divided by non-specific binding, grey matter, self-block with cold compound.
Where [4] appears, read: cells printed in μM, read-out: Ki on AD brain homogenates.

Sequence of TDP-43 aggregates (Q13148 whole entry): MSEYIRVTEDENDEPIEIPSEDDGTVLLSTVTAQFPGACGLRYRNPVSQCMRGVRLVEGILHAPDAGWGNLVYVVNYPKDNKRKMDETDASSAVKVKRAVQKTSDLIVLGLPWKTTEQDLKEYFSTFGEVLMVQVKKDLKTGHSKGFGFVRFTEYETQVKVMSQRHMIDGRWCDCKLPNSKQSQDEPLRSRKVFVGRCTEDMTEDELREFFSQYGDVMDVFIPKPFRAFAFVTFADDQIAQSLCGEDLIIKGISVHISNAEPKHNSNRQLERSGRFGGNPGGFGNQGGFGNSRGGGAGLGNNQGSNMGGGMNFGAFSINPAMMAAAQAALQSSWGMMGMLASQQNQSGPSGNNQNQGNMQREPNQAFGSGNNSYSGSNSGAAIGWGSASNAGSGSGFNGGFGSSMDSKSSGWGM
Sequence of human FTD Type A sarkosyl-insoluble brain extracts (Q13148 263-414 limits assumed): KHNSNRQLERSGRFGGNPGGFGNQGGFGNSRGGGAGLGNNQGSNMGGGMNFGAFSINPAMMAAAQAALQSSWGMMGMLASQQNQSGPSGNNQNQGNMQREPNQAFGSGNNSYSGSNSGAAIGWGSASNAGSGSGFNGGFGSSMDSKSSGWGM
T1 sequence (Q13148 261-414 limits assumed): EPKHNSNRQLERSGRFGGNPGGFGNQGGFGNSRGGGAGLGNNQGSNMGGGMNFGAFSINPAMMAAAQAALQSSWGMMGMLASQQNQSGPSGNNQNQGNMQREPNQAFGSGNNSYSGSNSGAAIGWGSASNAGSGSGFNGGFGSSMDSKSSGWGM
T2 sequence (P05067 672-713 limits assumed): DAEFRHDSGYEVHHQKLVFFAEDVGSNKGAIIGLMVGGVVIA

In turn, `[3H]c1cncc(N2CCc3nc(-c4cc([3H])c(N5CC[C@H](F)C5)nc4F)sc3C2=O)c1` [[^3H]-Compound 8, tritiated (S)-2-(2-fluoro-6-(3-fluoropyrrolidin-1-yl)pyridin-3-yl)-5-(pyridin-3-yl)-6,7-dihydrothiazolo[5,4-c]pyridin-4(5H)-one] had a Kd in assay [1] of 47 ± 8 nM.
Consider `O=C1c2sc(-c3ccc(N4CC[C@H](F)C4)nc3F)nc2CCN1c1cccnc1` [Compound 8, (S)-2-(2-fluoro-6-(3-fluoropyrrolidin-1-yl)pyridin-3-yl)-5-(pyridin-3-yl)-6,7-dihydrothiazolo[5,4-c]pyridin-4(5H)-one], for which, in assay [2], the affinity, expressed as Ki, was 73 nM; the “Human brain derived TDP-43 aggregates Mean % competition at 250 nM” value is reported as 55%; the “Human brain derived TDP-43 aggregates Mean % competition at 2 μM” value is given as 73%. At TDP-43 aggregates (classical autoradiography), the “Displacement on FTLD-TDP type A and B compared to non-demented control” value was “increased displacement”. In addition, on TDP-43 aggregates (setting [3]), the “cARG displacement on FTLD-TDP Type A case” value is given as 3.0, the “cARG displacement on FTLD-TDP Type B case” value is 3.3 and the “cARG displacement on non-demented control” value is given as 2.3. For the same molecule, the inhibition constant Ki at Abeta (setting [4]) was more than 1 µM.
In assay [1], `[3H]c1cnc(N2CCc3nc(-c4cc([3H])c(N5CC[C@@H](F)C5)nc4F)sc3C2=O)nc1` [[^3H]-Compound 15, Tritiated 2-[2-fluoro-6-[(3R)-3-fluoropyrrolidin-1-yl]-3-pyridyl]-5-pyrimidin-2-yl-6,7-dihydrothiazolo[5,4-c]pyridine-4-one] showed a Kd of 21 ± 7 nM.
On the same count and under the same terms, with `[3H]c1cc(N2CCc3nc(-c4cc([3H])c(N5CC[C@@H](F)C5)nc4F)sc3C2=O)ccn1` [[^3H]-Compound 7, Tritiated (R)-2-(2-fluoro-6-(3-fluoropyrrolidin-1-yl)pyridin-3-yl)-5-(pyridin-4-yl)-6,7-dihydrothiazolo[5,4-c]pyridin-4(5H)-one] the figure was 39 ± 11 nM.
Turning to `Nc1cc(N2CCc3nc(-c4ccc(N5CCCC5)nc4F)sc3C2=O)ccc1F` [Compound 10, 5-(3-amino-4-fluorophenyl)-2-(2-fluoro-6-(pyrrolidin-1-yl)pyridin-3-yl)-6,7-dihydrothiazolo[5,4-c]pyridin-4(5H)-one], in assay [2], the affinity, expressed as Ki, was 16 nM; the “Human brain derived TDP-43 aggregates Mean % competition at 250 nM” value was determined as 52%; the “Human brain derived TDP-43 aggregates Mean % competition at 2 μM” value stood at 75%. Moreover, at Abeta (read-out: Ki (nM) on AD brain homogenates), the inhibition constant (Ki) was 0.35 µM.
As for `O=C1c2sc(-c3ccc(N4CCCCC4)nc3F)nc2CCN1c1ccnc(F)c1` [Compound 23, 2-(2-fluoro-6-(piperidin-1-yl)pyridin-3-yl)-5-(2-fluoropyridin-4-yl)-6,7-dihydrothiazolo[5,4-c]pyridin-4(5H)-one], in assay [2], the Ki was found to be 25 nM, the “Human brain derived TDP-43 aggregates Mean % competition at 250 nM” value came to 73% and the “Human brain derived TDP-43 aggregates Mean % competition at 2 μM” value turned out to be 104%. Moreover, at Abeta (setting [4]), the Ki is more than 1 µM.
For `O=C1c2sc(-c3ccc(N4CC[C@H](F)C4)nc3F)nc2CCN1c1ncccn1` [[^3H]-Compound 16], the Kd in assay [1] was found to be 24 ± 3 nM.
In the case of `O=C1c2sc(-c3ccc(N4CCC[C@H](F)C4)nc3F)nc2CCN1c1ncccn1` [Compound 35], in assay [2], affinity was put at a Ki of 49 nM, the “Human brain derived TDP-43 aggregates Mean % competition at 250 nM” value was 55% and the “Human brain derived TDP-43 aggregates Mean % competition at 2 μM” value is 70%. For the same molecule, the Ki on Abeta (setting [4]) is more than 1 µM.
In the case of `O=C1c2sc(-c3ccc(N4CCC[C@H](F)C4)nc3F)nc2CCN1c1cnsc1` [Compound 27, (S)-2-(2-fluoro-6-(3-fluoropiperidin-1-yl)pyridin-3-yl)-5-(isothiazol-4-yl)-6,7-dihydrothiazolo[5,4-c]pyridin-4(5H)-one], in assay [2], the Ki came to 48 nM, the “Human brain derived TDP-43 aggregates Mean % competition at 250 nM” value was determined as 57% and the “Human brain derived TDP-43 aggregates Mean % competition at 2 μM” value was 94%. The Ki on Abeta (setting [4]) was more than 1 µM.
